# Results as given in patent US12016852B2, “Pyrrolidine glycosidase inhibitors” (Asceneuron SA, priority 2018, dated 2024).
# Biological target: T1, Human O-GlcNAcase (His-Tagged hOGA) (Homo sapiens, UniProt O60502)
# T1 sequence (O60502 1-916): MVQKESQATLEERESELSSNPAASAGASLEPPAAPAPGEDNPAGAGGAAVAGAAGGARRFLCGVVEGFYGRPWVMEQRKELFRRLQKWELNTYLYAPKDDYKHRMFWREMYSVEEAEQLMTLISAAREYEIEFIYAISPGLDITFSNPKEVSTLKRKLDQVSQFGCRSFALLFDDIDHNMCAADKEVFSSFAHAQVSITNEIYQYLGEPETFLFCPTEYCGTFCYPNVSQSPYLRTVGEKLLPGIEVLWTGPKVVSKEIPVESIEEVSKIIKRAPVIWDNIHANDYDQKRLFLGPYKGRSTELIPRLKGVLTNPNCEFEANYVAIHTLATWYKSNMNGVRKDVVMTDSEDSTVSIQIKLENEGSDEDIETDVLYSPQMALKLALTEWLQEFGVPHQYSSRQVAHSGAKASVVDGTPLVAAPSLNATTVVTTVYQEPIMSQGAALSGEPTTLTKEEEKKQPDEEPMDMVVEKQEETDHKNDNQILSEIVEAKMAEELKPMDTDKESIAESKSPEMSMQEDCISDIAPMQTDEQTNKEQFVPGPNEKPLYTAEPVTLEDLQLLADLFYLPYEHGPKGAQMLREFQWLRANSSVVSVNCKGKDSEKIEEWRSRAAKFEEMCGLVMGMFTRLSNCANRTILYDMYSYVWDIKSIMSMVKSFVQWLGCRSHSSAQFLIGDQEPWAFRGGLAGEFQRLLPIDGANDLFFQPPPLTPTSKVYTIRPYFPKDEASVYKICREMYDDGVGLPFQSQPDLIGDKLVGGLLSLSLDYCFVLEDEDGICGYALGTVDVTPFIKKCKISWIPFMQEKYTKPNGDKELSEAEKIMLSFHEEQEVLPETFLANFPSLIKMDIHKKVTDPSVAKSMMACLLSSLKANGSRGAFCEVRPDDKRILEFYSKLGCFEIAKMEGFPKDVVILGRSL
# Assay: Human O-GlcNAcase enzyme inhibition assay
# Format: biochemical
# Conditions: 20 nM His-Tagged hOGA, 10 μM FL-GlcNAc, McIlvaine's Buffer pH 6.5, 60 min at room temperature, fluorescence; read-out: OGA IC50
# Procedure: Example B01: Human O-GlcNAcase Enzyme Inhibition Assay
# 5 μl of the appropriate concentration of a solution of inhibitor in Mcllvaine's Buffer (pH 6.5) in 2% DMSO (for a dose response curve calculation) is added into each well of a 384-well plate (Greiner, 781900). Then, 20 nM of His-Tagged hOGA and 10 μM of FL-GlcNAc (Fluorescein mono-beta-D-(2-deoxy-2-N-acetyl) glucopyranoside; Marker Gene Technologies Inc, M1485) were added to the 384-well plate for a final volume of 20 μl. After incubation for 60 min at room temperature, the reaction was terminated by the addition of 10 μL of stop buffer (200 mM glycine, pH 10.75). The level of fluorescence (λexc 485 nm; (λemm 520 nm) was read on a PHERAstar machine. The amount of fluorescence measured was plotted against the concentration of inhibitor to produce a sigmoidal dose response curve to calculate an IC50. All individual data was corrected by subtraction of the background (Thiamet 3 uM=100% inhibition) whilst 0.5% DMSO was considered as the control value (no inhibition).
row,IC50 [nM],Compound
1,50 to 200,"Cn1cc(-c2ccc(CN3CCCC3c3ccc4c(c3)OCCO4)cc2)cn1 (racemic) [Example 4, 4-(4-((2-(2,3-dihydrobenzo[b] [1,4]dioxin-6-yl)pyrrolidin-1-yl)methyl)phenyl)-1-methyl-1H-pyrazole]"
2,50 to 200,"c1cnn(-c2ccc(CN3CCCC3c3ccc4c(c3)OCCO4)cc2)c1 (racemic) [Example 16, 1-(4-((2-(2,3-dihydrobenzo[b] [1,4]dioxin-6-yl)pyrrolidin-1-yl)methyl)phenyl)-1H-pyrazole]"
3,200 to 1000,"c1cnc2ccc(CN3CCCC3c3ccc4c(c3)OCCO4)cc2c1 (racemic) [Example 19, 6-((2-(2,3-dihydrobenzo[b] [1,4]dioxin-6-yl)pyrrolidin-1-yl)methyl)quinoline]"
4,200 to 1000,"Cn1ncc2cc(CN3CCCC3c3ccc4c(c3)OCCO4)ccc21 (racemic) [Example 20, 5-((2-(2,3-dihydrobenzo[b] [1,4]dioxin-6-yl)pyrrolidin-1-yl)methyl)-1-methyl-1H-indazole]"
5,200 to 1000,"Cn1cc(-c2cccc(CN3CCCC3c3ccc4c(c3)OCCO4)c2)cn1 (racemic) [Example 21, 4-(3-((2-(2,3-dihydrobenzo[b] [1,4]dioxin-6-yl)pyrrolidin-1-yl)methyl)phenyl)-1-methyl-1H-Pyrazole]"
6,200 to 1000,"c1ccc2ncc(CN3CCCC3c3ccc4c(c3)OCCO4)cc2c1 (racemic) [Example 26, 3-((2-(2,3-dihydrobenzo[b] [1,4]dioxin-6-yl)pyrrolidin-1-yl)methyl)quinoline]"
7,200 to 1000,"c1ccc(-c2ccc(CN3CCCC3c3ccc4c(c3)OCCO4)cc2)nc1 (racemic) [Example 29, 2-(4-((2-(2,3-dihydrobenzo[b] [1,4]dioxin-6-yl)pyrrolidin-1-yl)methyl)phenyl)pyridine]"
8,50 to 200,"c1cncc(-c2ccc(CN3CCCC3c3ccc4c(c3)OCCO4)cc2)c1 (racemic) [Example 30, 3-(4-((2-(2,3-dihydrobenzo[b] [1,4]dioxin-6-yl)pyrrolidin-1-yl)methyl)phenyl) pyridine]"
9,200 to 1000,"Clc1cc(-c2cccnc2)ccc1CN1CCCC1c1ccc2c(c1)OCCO2 (racemic) [Example 31, 3-(3-chloro-4-((2-(2,3-dihydrobenzo[b] [1,4]dioxin-6-yl)pyrrolidin-1-yl)methyl)phenyl)pyridine]"
10,50 to 200,"Fc1cc(-c2cccnc2)ccc1CN1CCCC1c1ccc2c(c1)OCCO2 (racemic) [Example 32, 3-(4-((2-(2,3-dihydrobenzo[b] [1,4]dioxin-6-yl)pyrrolidin-1-yl)methyl)-3-fluorophenyl)pyridine]"
11,50 to 200,"Cc1cc(-c2cccnc2)ccc1CN1CCCC1c1ccc2c(c1)OCCO2 (racemic) [Example 38, 3-(4-((2-(2,3-dihydrobenzo[b] [1,4]dioxin-6-yl)pyrrolidin-1-yl)methyl)-3-methylphenyl)pyridine]"
12,200 to 1000,"Fc1cc(-c2ccccn2)ccc1CN1CCCC1c1ccc2c(c1)OCCO2 (racemic) [Example 41, 2-(4-((2-(2,3-dihydrobenzo[b] [1,4]dioxin-6-yl)pyrrolidin-1-yl)methyl)-3-fluorophenyl)pyridine]"

# More lines, now with the values behind:
row,Compound,IC50 [nM]
1,"Cn1cc(-c2ccc(CN3CCCC3c3ccc4c(c3)OCCO4)cn2)cn1 (racemic) [Example 5, 5-((2-(2,3-dihydrobenzo[b] [1,4]dioxin-6-yl)pyrrolidin-1-yl)methyl)-2-(1-methyl-1H-pyrazol-4-yl)pyridine]",50 to 200
2,"CS(=O)(=O)c1ccc(CN2CCCC2c2ccc3c(c2)OCCO3)cc1 (racemic) [Example 8, 2-(2,3-dihydrobenzo[b] [1,4]dioxin-6-yl)-1-(4-(methylsulfonyl)benzyl) pyrrolidine]",200 to 1000
3,"c1ccc(-c2ccc(CN3CCCC3c3ccc4c(c3)OCCO4)cc2)cc1 (racemic) [Example 9, 1-([1,1′-biphenyl]-4-ylmethyl)-2-(2,3-dihydrobenzo[b] [1,4]dioxin-6-yl)pyrrolidine]",200 to 1000
4,"CS(=O)(=O)c1ccc(CN2CCCC2c2ccc3c(c2)OCC3)cc1 (racemic) [Example 10, 2-(2,3-dihydrobenzofuran-6-yl)-1-(4-(methylsulfonyl)benzyl)pyrrolidine]",200 to 1000
5,"Cn1cc(-c2ccc(CN3CCCC3c3ccc4c(c3)OCC4)cc2)cn1 (racemic) [Example 11, 4-(4-((2-(2,3-dihydrobenzofuran-6-yl)pyrrolidin-1-yl)methyl)phenyl)-1-methyl-1H-pyrazole]",< 50
6,"Cn1cc(-c2ccc(CN3CCCC3c3ccc4c(c3)OCC4)cn2)cn1 (racemic) [Example 12, 5-((2-(2,3-dihydrobenzofuran-6-yl)pyrrolidin-1-yl)methyl)-2-(1-methyl-1H-pyrazol-4-yl)pyridine]",50 to 200
7,"CS(=O)(=O)c1ccc(-c2ccc(CN3CCCC3c3ccc4c(c3)OCCO4)nc2)cc1 (racemic) [Example 14, 2-((2-(2,3-dihydrobenzo[b] [1,4]dioxin-6-yl)pyrrolidin-1-yl)methyl)-5-(4-(methylsulfonyl)phenyl)pyridine]",200 to 1000
8,"c1ccc(-c2ccc(CN3CCCC3c3ccc4c(c3)OCC4)cc2)cc1 (racemic) [Example 22, 1-([1,1′-biphenyl]-4-ylmethyl)-2-(2,3-dihydrobenzofuran-6-yl)pyrrolidine]",200 to 1000
9,"c1cc(N2CCOCC2)ccc1CN1CCCC1c1ccc2c(c1)OCCO2 (racemic) [Example 23, 4-(4-((2-(2,3-dihydrobenzo[b] [1,4]dioxin-6-yl)pyrrolidin-1-yl)methyl)phenyl)morpholine]",200 to 1000
10,"c1cc(N2CCOCC2)ccc1CN1CCCC1c1ccc2c(c1)OCC2 (racemic) [Example 24, 4-(4-((2-(2,3-dihydrobenzofuran-6-yl)pyrrolidin-1-yl)methyl)phenyl)morpholine]",200 to 1000
11,"c1cc(N2CCSCC2)ccc1CN1CCCC1c1ccc2c(c1)OCCO2 (racemic) [Example 28, 4-(4-((2-(2,3-dihydrobenzo[b] [1,4]dioxin-6-yl)pyrrolidin-1-yl)methyl) Phenyl) thiomorpholine]",200 to 1000
12,"c1ncn(-c2ccc(CN3CCCC3c3ccc4c(c3)OCCO4)cc2)n1 (racemic) [Example 34, 1-(4-((2-(2,3-dihydrobenzo[b] [1,4]dioxin-6-yl)pyrrolidin-1-yl)methyl)phenyl)-1H-1,2,4-triazole]",50 to 200
13,"c1cnc(N2CCC(CN3CCCC3c3ccc4c(c3)OCCO4)CC2)nc1 (racemic) [Example 35, 2-(4-((2-(2,3-dihydrobenzo[b] [1,4]dioxin-6-yl)pyrrolidin-1-yl)methyl)piperidin-1-yl)pyrimidine]",200 to 1000
14,"CS(=O)(=O)N1CCN(c2ccc(CN3CCCC3c3ccc4c(c3)OCCO4)cc2)CC1 (racemic) [Example 36, 1-(4-((2-(2,3-dihydrobenzo[b] [1,4]dioxin-6-yl)pyrrolidin-1-yl)methyl)phenyl)-4-(methylsulfonyl)piperazine]",200 to 1000
15,"CC(=O)N1CCN(c2ccc(CN3CCCC3c3ccc4c(c3)OCCO4)cc2)CC1 (racemic) [Example 37, 1-(4-(4-((2-(2,3-dihydrobenzo[b] [1,4]dioxin-6-yl)pyrrolidin-1-yl)methyl)phenyl)piperazin-1-yl)ethan-1-one]",200 to 1000
16,"c1ncc(-c2ccc(CN3CCCC3c3ccc4c(c3)OCCO4)cc2)cn1 (racemic) [Example 39, 5-(4-((2-(2,3-dihydrobenzo[b] [1,4]dioxin-6-yl)pyrrolidin-1-yl)methyl)phenyl)pyrimidine]",50 to 200
